Laboratory results reported in patent US7358056B1, “Methods for modulating signal transduction mediated by TGF-β and related proteins” (Signal Pharmaceuticals, priority 1999, dated 2008).
Where a SMILES comes first, the peptide text is derived from it. Where no end group is shown, it is not given here. The star is where a group is joined. Biotin = O=C1N[C@H]2[C@H](CS[C@H]2CCCCC(=O)*)N1; Ahx = NCCCCCC(=O)O

Columns and labels:
[1] = tested on: WWP1 WW domains; experiment: TRF binding assay of biotinylated PY motif peptides to GST-WW domain fusions; settings: for Interaction with WWP1 WW domains (TRF, peptide titration): GST-WW domains coated at 30 μg/mL overnight
Experimental: Each domain was individually expressed as a GST fusion protein. A TRF binding assay was used to evaluate interactions of PY motif peptides with these domains or GST alone. WW domains were bound to a 96-well polystyrene assay plate (Costar) overnight at 4° C. in a 200 mM carbonate buffer (Pierce, Rockford, Ill.) at different concentrations (0, 1, 3, 10 μg/mL). Unbound WW domain was washed away with distilled, deionized water and the plates were blocked with 1% BSA/carbonate buffer for 2 hours at room temperature. The plates were then washed with Tris/TWEEN® buffer: 50 mM Tris pH 7.5, 100 mM NaCl, 1 mM EDTA, 1% BSA, 1 mM DTT, 0.1% TWEEN® 20 detergent, protease inhibitor cocktail (Boehringer-Mannheim).
PY motif peptides were synthesized with a C6-linker and biotin tag.
These biotinylated peptides were solvated in Tris/TWEEN® buffer and added to the assay plates (30 μM). The plates were incubated at 4° C. for varying amounts of capture time. The plates were then washed with PBS/0.1% TRITON® X-100 detergent and probed for 1 hour at room temperature with 1 μg/mL Europium-labeled streptavidin (DELFIA; Wallac Oy, Turku, Finland) in DELFIA Assay Buffer/0.1% Triton X100. The unbound Europium-labeled streptavidin was washed with PBS/0.1% TRITON® X-100 detergent. Europium was released for time-resolved fluorescence measurements with the DELFIA Enhancement Buffer. Measurements were made on either the DELFIA 1234 or Victor fluorometers.
Smad PY motif peptides from Smad 1, 2, 3, 5, 6 and 7 (Table 1) were then evaluated with the WW domains from WWP1 (FIGS. 6A-6D and 7A-7B). The GST-WW domain fusion proteins and GST alone were coated at 30 μg/mL overnight. After blocking the wells with BSA, the WW domain peptides were titrated with the Smad PY motif peptides.

[2] = tested on: Smad1; experiment: In vivo ubiquitination of Smad1 in transfected COS cells (immunoprecipitation, Western); type: cell-based; settings: COS cells treated with LLF, with or without BMP
Experimental: To assess the in vivo ubiquitination of Smad1, a Smad1 expression vector was transfected into COS cells. The transfected cells were treated with BMP and the proteasome inhibitor LLF, as described above. The cells were then lysed and equal amounts of protein were used for immunoprecipitation using anti-HA antibody, to precipitate tagged-Smad1 protein. The immunoprecipitated Smad1 was run on SDS-PAGE, followed by a Western blot using anti-HA antibody or anti-ubiquitin antibody (BAbCo).

[3] = tested on: HA-tagged Smad1; experiment: BMP-induced Smad1 degradation in transfected COS cells (Western, anti-HA); type: cell-based; settings: 100 ng BMP 4 hours, 50-100 μM LLF
Experimental: HA-tagged Smad1 expression vector was transfected into COS cells. The transfected cells were then treated with 100 ng BMP for 4 hours in the absence or presence of 50-100 μM of the proteasome inhibitor Leu-Leu-Phe (LLF). The cells were lysed and equal amount of protein was loaded in each lane. Western analysis was performed using anti-HA antibody (BAbCo, Berkeley, Calif.).

[4] = tested on: E1 and E2s (ubc5c and ubc7); experiment: Coupled ubiquitin assay, ubiquitination of active site cysteines of E1 and E2; type: biochemical; settings: 20 mM DTT
Experimental: Recombinant E1 (ubc5c) and E2 (ubc7) components were obtained from BostonBiochem (Cambridge, Mass.). Radiolabeled ubiquitin was generated by PKA-mediated incorporation of [^32P]-phosphate from […] to the PKA site of the GST-Ub fusion protein (pGEX KG expression vector). The ubiquitin assay buffer (UbB) was as follows: 50 mM Tris pH 7.6, 1 mM ATP, 0.2 mM EDTA, 5 mM MgCl2, 1 unit inorganic pyrophosphatase, 0.005% TRITON® X-100 detergent and 1 μM staurosporine. In a 0.030 mL reaction, the following components were present: 50-200 ng E1, 0.1-1 μg E2 and 5 μg GST-Ub. […] Reactions were analyzed by SDS-PAGE. The ubiquitination of active site cysteine residues of E1 and E2s (ubc Sc and ubc 7) was observed (FIGS. 9A-9C).

Row | Compound | Interaction with WWP1 WW domains (TRF, peptide titration) [1] | also measured
1 | AGLTPPPGYLSEDG (SEQ ID NO:25) (also: biotinylated) [Smad 3, biotinylated Smad3 PY motif peptide] | no measurable interaction | 
2 | {Biotin-Ahx}-HPGTPPPPYTVGPG-NH2 (SEQ ID NO:28) [WBP1, reference compound] |  | Binding to WWP1 WW domains (TRF) ([1]; peptide 30 μM, WW domains coated at 0, 1, 3, 10 μg/mL, GST alone as control): bound specifically
3 | GPESPPPPYSRLSP (SEQ ID NO:21) (also: biotinylated) [Smad 6, biotinylated Smad6 PY motif peptide] | measurable interactions | 
4 | PADTPPPAYMPPDD (SEQ ID NO:23) (also: biotinylated) [Smad 5, biotinylated Smad5 PY motif peptide] | measurable interactions | 
5 | IPETPPPGYISEDG (SEQ ID NO:24) (also: biotinylated) [Smad 2, biotinylated Smad2 PY motif peptide] | no measurable interaction | 
6 | CC(C)C[C@H](NC(=O)[C@@H](N)CC(C)C)C(=O)N[C@@H](Cc1ccccc1)C(=O)O [LLF, Leu-Leu-Phe] (H-Leu-Leu-Phe-OH) |  | Accumulation of high molecular weight ubiquitinated Smad1 [2]: accumulated more high molecular weight, ubiquitinated-Smad1 protein; Effect on BMP-induced Smad1 degradation [3]: blocks BMP-induced Smad1 degradation
7 | O[C@@H](CS)[C@@H](O)CS [DTT] |  | Formation of thioester intermediates (ubiquitinated E1 and E2) [4]: prevented the formation of the thioester intermediates
8 | {Biotin-Ahx}-PADTPPPAYLPPED-NH2 (SEQ ID NO:22) [Smad 1] | no measurable interaction | 
